In ChEMBL document CHEMBL6071148, “Synthesis and biological evaluation of novel 3,6- amide and thioamide substituted- 2,3,4,9-tetrahydro-1H-carbazoles for anti-cancer activity” (Eur J Med Chem, 2024):
Active and inactive are the calls of the source. The rule behind the calls is not given here.

Legend:
[1] = tested on: MCF7; experiment: Cytotoxicity against human MCF7 cells assessed as inhibition of cell proliferation incubated for 72 hrs by MTT assay; format: functional, cell-based; settings: MCF7, 72 h
[2] = tested on: A549; experiment: Cytotoxicity against human A549 cells assessed as inhibition of cell proliferation incubated for 72 hrs by MTT assay; format: functional, cell-based; settings: A549, 72 h
[3] = tested on: HCT-116; experiment: Cytotoxicity against human HCT-116 cells assessed as inhibition of cell proliferation incubated for 72 hrs by MTT assay; format: functional, cell-based; settings: HCT-116, 72 h
[4] = tested on: MCF7; experiment: Inhibition of colony formation in human MCF7 cells assessed as reduction in clonogenic capacity incubated for 24 hrs by crystal violet staining based analysis; format: functional, cell-based
[5] = tested on: HCT-116; experiment: Inhibition of colony formation in human HCT-116 cells assessed as reduction in clonogenic capacity incubated for 24 hrs by crystal violet staining based analysis; format: functional, cell-based
[6] = tested on: A549; experiment: Inhibition of colony formation in human A549 cells assessed as reduction in clonogenic capacity incubated for 24 hrs by crystal violet staining based analysis; format: functional, cell-based
[7] = tested on: A549; experiment: Inhibition of cell adhesion in human A549 cells assessed as reduction in cell aggregates formation at IC50 incubated for 48 hrs by inverted phase contrast microscopic analysis; format: functional, cell-based
[8] = tested on: A549; experiment: Induction of cell cycle arrest in human A549 cells assessed as accumulation of cells at S phase at IC50 incubated for 24 hrs by PI staining based flow cytometric analysis (reference value: 39.41 +/- 2.54%); format: functional
[9] = tested on: A549; experiment: Induction of cell cycle arrest in human A549 cells assessed as accumulation of cells at G2 phase at IC50 incubated for 24 hrs by PI staining based flow cytometric analysis (reference value: 23.45 +/- 1.62%); format: functional
[10] = tested on: A549; experiment: Induction of cell cycle arrest in human A549 cells assessed as accumulation of cells at G1 phase at IC50 incubated for 48 hrs by PI staining based flow cytometric analysis (reference value: 53.5 +/- 4.01%); format: functional
[11] = tested on: A549; experiment: Induction of cell cycle arrest in human A549 cells assessed as accumulation of cells at S phase at IC50 incubated for 48 hrs by PI staining based flow cytometric analysis (reference value: 17.825 +/- 3.70%); format: functional
[12] = tested on: MCF7; experiment: Induction of cell cycle arrest in human MCF7 cells assessed as accumulation of cells at G1 phase at IC50 incubated for 24 hrs by PI staining based flow cytometric analysis relative to control; format: functional
[13] = tested on: MCF7; experiment: Induction of cell cycle arrest in human MCF7 cells assessed as accumulation of cells at S phase at IC50 incubated for 24 hrs by PI staining based flow cytometric analysis relative to control; format: functional
[14] = tested on: A549; experiment: Induction of DNA damage in human A549 cells assessed as gammaH2AX positive cells at IC50 incubated for 48 hrs by PI staining based flow cytometric analysis (reference value: 4.90 +/- 0.50%); format: functional
[15] = tested on: Mitochondrial membrane; experiment: Induction of mitochondrial membrane depolarization in human A549 cells assessed as decrease in ratio of J-aggregates to J-monomer incubated for 24 hrs by JC-1 staining based flow cytometric analysis (reference value: 17.72 +/- 3.94%); format: cell membranes
[16] = tested on: Mitochondrial membrane; experiment: Induction of mitochondrial membrane depolarization in human A549 cells assessed as increase in mitochondrial fission by measuring appearance of spherical mitochondria by confocal microscopic analysis; format: cell membranes
[17] = tested on: Mitochondrial membrane; experiment: Induction of mitochondrial membrane depolarization in human A549 cells assessed as increase in mitochondrial fission by measuring appearance of circular mitochondria by confocal microscopic analysis; format: cell membranes
[18] = tested on: Mitochondrial membrane; experiment: Induction of mitochondrial membrane depolarization in human MCF7 cells assessed as increase in mitochondrial fission by measuring appearance of circular mitochondria by confocal microscopic analysis; format: cell membranes
[19] = tested on: Mitochondrial membrane; experiment: Disruption of mitochondrial membrane integrity in human A549 cells assessed as change in mitochondrial shape by TEM analysis; format: cell membranes
[20] = tested on: Mitochondrial membrane; experiment: Disruption of mitochondrial membrane integrity in human A549 cells assessed as change in mitochondrial internal organization by TEM analysis; format: cell membranes
[21] = tested on: Mitochondrial membrane; experiment: Disruption of mitochondrial membrane integrity in human MCF7 cells assessed as change in mitochondrial internal organization by TEM analysis; format: cell membranes
[22] = tested on: Mitochondrial membrane; experiment: Disruption of mitochondrial membrane integrity in human MCF7 cells assessed as mitochondrial swelling by TEM analysis; format: cell membranes
[23] = tested on: Mitochondrial membrane; experiment: Disruption of mitochondrial membrane integrity in human MCF7 cells assessed as disruption of normal mitochondrial distribution by TEM analysis; format: cell membranes
[24] = tested on: Mitochondrial membrane; experiment: Disruption of mitochondrial membrane integrity in human A549 cells assessed as organization of mtDNA nucleoids within cells by TEM analysis; format: cell membranes
[25] = tested on: Mitochondrial membrane; experiment: Disruption of mitochondrial membrane integrity in human MCF7 cells assessed as organization of mtDNA nucleoids within cells by TEM analysis; format: cell membranes
[26] = tested on: Mitochondrial membrane; experiment: Disruption of mitochondrial membrane integrity in human MCF7 cells assessed as presence of large mitochondria by TEM analysis; format: cell membranes
[27] = tested on: Mitochondrial membrane; experiment: Disruption of mitochondrial membrane integrity in human A549 cells assessed as presence of large mitochondria by TEM analysis; format: cell membranes
[28] = tested on: Mitochondrial membrane; experiment: Disruption of mitochondrial membrane integrity in human A549 cells assessed as presence of bloated mitochondria by TEM analysis; format: cell membranes
[29] = tested on: Mitochondrial membrane; experiment: Disruption of mitochondrial membrane integrity in human MCF7 cells assessed as presence of bloated mitochondria by TEM analysis; format: cell membranes
[30] = tested on: Mitochondrial membrane; experiment: Disruption of mitochondrial membrane integrity in human MCF7 cells assessed as absence of well-developed cristae by TEM analysis; format: cell membranes
[31] = tested on: A549; experiment: Induction of apoptosis in human A549 cells assessed as apoptotic rate at IC50 incubated for 24 hrs by Annexin-V and 7-AAD staining based flow cytometric analysis (reference value: 4.56 +/- 0.81%); format: functional
[32] = tested on: A549; experiment: Induction of apoptosis in human A549 cells assessed as apoptotic rate at IC50 incubated for 48 hrs by Annexin-V and 7-AAD staining based flow cytometric analysis (reference value: 6.56 +/- 1.17%); format: functional
[33] = tested on: MCF7; experiment: Induction of apoptosis in human MCF7 cells assessed as increase in apoptotic cells incubated for 24 hrs by Annexin-V and 7-AAD staining based flow cytometric analysis (reference value: 5.70 +/- 1.56%); format: functional
[34] = tested on: MCF7; experiment: Induction of apoptosis in human MCF7 cells assessed as increase in apoptotic cells incubated for 48 hrs by Annexin-V and 7-AAD staining based flow cytometric analysis (reference value: 7.53 +/- 1.16%); format: functional
[35] = tested on: Chorioallantoic membrane; experiment: Anti-angiogenesis activity in chicken embryo chorioallantoic membrane assessed as reduction in blood vessel formation by imaging analysis; format: functional, tissue-based; settings: Gallus gallus, TDE = time-dependent effect
[36] = tested on: A549; experiment: Antitumor activity against human A549 cells xenografted in chicken embryo chorioallantoic membrane assessed as reduction in tumor size; format: functional, cell-based; settings: dose 1.5-4.5 µM
[37] = tested on: A549; experiment: Antitumor activity against human A549 cells xenografted in chicken embryo chorioallantoic membrane assessed as necrosis at 1.5 to 4.5 uM by H and E staining based analysis; format: functional, cell-based; settings: dose 1.5-4.5 µM
[38] = tested on: MCF7; experiment: Antitumor activity against human MCF7 cells xenografted in chicken embryo chorioallantoic membrane assessed as necrosis at 1.5 to 4.5 uM by H and E staining based analysis; format: functional, cell-based; settings: dose 1.5-4.5 µM
[39] = tested on: A549; experiment: Antitumor activity against human A549 cells xenografted in chicken embryo chorioallantoic membrane assessed as change in nuclear morphology at 1.5 to 4.5 uM by H and E staining based analysis; format: functional, cell-based; settings: dose 1.5-4.5 µM

CC(=S)NC1CCc2[nH]c3ccc(Br)cc3c2C1 (centres undefined)
IC50 [1]: 3.81 µM | IC50 [2]: 4.54 µM | IC50 [3]: 40 µM | inhibition [4]: Dose-Dependent Effect | inhibition [5]: Dose-Dependent Effect | inhibition [6]: Dose-Dependent Effect | inhibition [7]: Active | Activity [8]: 27.15% | Activity [9]: 14.3% | Activity [10]: 46.15% | Activity [11]: 30.8% | Activity [12]: 33.7% | Activity [13]: 25.65% | Activity [14]: 11.98% | Activity [15]: 8.73 | Activity [16]: Active | Activity [17]: Active | Activity [18]: Active | Activity [19]: Active | Activity [20]: Active | Activity [21]: Active | Activity [22]: Active | Activity [23]: Active | Activity [24]: Active | Activity [25]: Active | Activity [26]: Active | Activity [27]: Active | Activity [28]: Active | Activity [29]: Active | Activity [30]: Active | Activity [31]: 20.75% | Activity [32]: 42.87% | Activity [33]: 10.8% | Activity [34]: 47.28% | Activity [35]: Tde | Activity [36]: Dose-Dependent Effect | Activity [37]: Active | Activity [38]: Active | Activity [39]: Active
